# Test results as given in the supplement of paper PMC4862054.
# Values joined by “and” are separate entries in the source; they are usually repeats but may differ in a detail not shown here. Identical values can stand only once.
# Legend:
# Conditions in all cases: incubation time: 72 h
# [1] = test system: CAL-148; test: normalised viability (% of control), CellTiter-Blue; higher = more viable cells (about 100 = DMSO control)
# Method in brief: (§1)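 The reported quantity is normalised viability at a single listed concentration of the series. Compound in 5 µl medium was pre-dispensed into 384-well plates and 20 µl of breast cancer cell suspension was added for 72 h. A 2 h, 37 °C CellTiter-Blue step (2.5 µl) preceded fluorescence reading at 560/590 nm, and plates were normalised to vehicle (100) and a positive kill control (0).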
# [2] = test system: BT-549; test: as above
# Method in brief: as §1
# [3] = test system: CAL-51; test: as above
# Method in brief: as §1
# [4] = test system: MFM-223; test: as above
# Method in brief: as §1
# [5] = test system: HCC1937; test: as above
# Method in brief: as §1
# [6] = test system: Hs578T; test: as above
# Method in brief: as §1
# [7] = test system: MDA-MB-453; test: as above
# Method in brief: as §1
# [8] = test system: DU-4475; test: as above
# Method in brief: as §1
# [9] = test system: MDA-MB-231; test: as above
# Method in brief: as §1
# [10] = test system: HDQ-P1; test: as above
# Method in brief: as §1
# [11] = test system: HCC1143; test: as above
# Method in brief: as §1
# [12] = test system: CAL-148; test: drug sensitivity score (DSS), CellTiter-Glo (DSS (AUC-based score)); higher = stronger drug effect (viability inhibition or cytotoxicity); extreme values may be limits of the assay
# Method in brief: (§2)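 A drug sensitivity score was derived from the area under each fitted dose-response curve. Breast cancer cells (20 µl suspension) were seeded onto compound in 384-well plates, using 5 concentrations 10-fold apart over a compound-specific 10,000-fold range, and incubated 72 h. Readouts were CellTox Green fluorescence and then CellTiter-Glo luminescence, with every plate normalised to 0.1 % DMSO and a positive kill control.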
# [13] = test system: BT-474; test: as above
# Method in brief: as §2
# [14] = test system: MDA-MB-468; test: as above
# Method in brief: as §2
# [15] = test system: BT-549; test: as above
# Method in brief: as §2
# [16] = test system: CAL-120; test: as above
# Method in brief: as §2
# [17] = test system: MCF-10A; test: as above
# Method in brief: as §2
# [18] = test system: Hs578T; test: as above
# Method in brief: as §2
# [19] = test system: MDA-MB-453; test: as above
# Method in brief: as §2
# [20] = test system: DU-4475; test: as above
# Method in brief: as §2
# [21] = test system: SK-BR-3; test: as above
# Method in brief: as §2
# [22] = test system: MDA-MB-231; test: as above
# Method in brief: as §2
# [23] = test system: HDQ-P1; test: as above
# Method in brief: as §2
# [24] = test system: HCC1143; test: as above
# Method in brief: as §2
smiles,measurement,setting,value
CO[C@H](C(=O)[C@@H](O)[C@@H](C)O)[C@@H]1Cc2cc3cc(O[C@H]4C[C@@H](O[C@@H]5C[C@@H](O)[C@H](O)[C@@H](C)O5)[C@H](O)[C@@H](C)O4)c(C)c(O)c3c(O)c2C(=O)[C@H]1O[C@H]1C[C@@H](O[C@@H]2C[C@@H](O)[C@@H](O[C@@H]3C[C@](C)(O)[C@H](O)[C@@H](C)O3)[C@@H](C)O2)[C@H](O)[C@@H](C)O1 [Plicamycin],normalised viability,[1]; 3 nM,87.7%
same,normalised viability,[1]; 30 nM,95.3% and 99.5%
same,normalised viability,[1]; 100 nM,26% and 38.8%
same,normalised viability,[2]; 10 nM,94.7% and 83.2%
same,normalised viability,[2]; 1000 nM,6.74% and 5.38%
same,normalised viability,[2]; 10000 nM,6.68% and 5.22%
same,normalised viability,[3]; 3 nM,99.7% and 119%
same,normalised viability,[3]; 30 nM,96.1% and 112%
same,normalised viability,[3]; 100 nM,62.3% and 61.2%
same,normalised viability,[4]; 10 nM,103% and 87.9%
same,normalised viability,[4]; 1000 nM,20.3% and 16.5%
same,normalised viability,[4]; 10000 nM,9.96% and 7.4%
same,normalised viability,[5]; 10 nM,85.8% and 78.5%
same,normalised viability,[5]; 1000 nM,22.1% and 19.5%
same,normalised viability,[5]; 10000 nM,29.1% and 20.6%
same,normalised viability,[6]; 10 nM,100% and 82.1%
same,normalised viability,[6]; 1000 nM,3.62% and 2.96%
same,normalised viability,[6]; 10000 nM,2.27% and 1.73%
same,normalised viability,[7]; 3 nM,109% and 113%
same,normalised viability,[7]; 30 nM,99.8% and 92.6%
same,normalised viability,[7]; 100 nM,48.3% and 34.6%
same,normalised viability,[8]; 3 nM,85.1% and 89.9%
same,normalised viability,[8]; 30 nM,88.7% and 83.8%
same,normalised viability,[8]; 100 nM,1.46% and 0.7%
same,normalised viability,[9]; 10 nM,82.1% and 88.4%
same,normalised viability,[9]; 1000 nM,9.81% and 8.56%
same,normalised viability,[9]; 10000 nM,8.03% and 7.03%
same,normalised viability,[10]; 30 nM,104% and 80.5%
same,normalised viability,[10]; 100 nM,68.5% and 44.6%
same,normalised viability,[11]; 10 nM,84.9% and 62.2%
same,normalised viability,[11]; 1000 nM,22% and 14.7%
same,normalised viability,[11]; 10000 nM,16.7% and 14.6%
same,drug sensitivity score,[12],4.43
same,drug sensitivity score,[13],6.47
same,drug sensitivity score,[14],6.69
same,drug sensitivity score,[15],7.16
same,drug sensitivity score,[16],2.12
same,drug sensitivity score,[17],4.28
same,drug sensitivity score,[18],4.2
same,drug sensitivity score,[19],3.11
same,drug sensitivity score,[20],5.55
same,drug sensitivity score,[21],3.86
same,drug sensitivity score,[22],5.67
same,drug sensitivity score,[23],2.83
same,drug sensitivity score,[24],4.54
C[C@]12C=CC(=O)C=C1CC[C@@H]1[C@@H]2C(=O)C[C@@]2(C)[C@H]1CC[C@]2(O)C(=O)CO [Prednisone],normalised viability,[1]; 3 nM,94.8%
same,normalised viability,[1]; 30 nM,97.4%
same,normalised viability,[1]; 100 nM,104%
same,normalised viability,[2]; 10 nM,96.7%
same,normalised viability,[2]; 1000 nM,107%
same,normalised viability,[2]; 10000 nM,108%
same,normalised viability,[3]; 3 nM,104%
same,normalised viability,[3]; 30 nM,98.3%
same,normalised viability,[3]; 100 nM,103%
same,normalised viability,[4]; 10 nM,91.7%
same,normalised viability,[4]; 1000 nM,89.7%
same,normalised viability,[4]; 10000 nM,94.8%
same,normalised viability,[5]; 10 nM,95.7%
same,normalised viability,[5]; 1000 nM,105%
same,normalised viability,[5]; 10000 nM,98.9%
same,normalised viability,[6]; 10 nM,121%
same,normalised viability,[6]; 1000 nM,108%
same,normalised viability,[6]; 10000 nM,105%
same,normalised viability,[7]; 3 nM,106%
same,normalised viability,[7]; 30 nM,115%
same,normalised viability,[7]; 100 nM,113%
same,normalised viability,[8]; 3 nM,90.2%
same,normalised viability,[8]; 30 nM,94.9%
same,normalised viability,[8]; 100 nM,88.4%
same,normalised viability,[9]; 10 nM,97%
same,normalised viability,[9]; 1000 nM,101%
same,normalised viability,[9]; 10000 nM,108%
same,normalised viability,[10]; 3 nM,98.3%
same,normalised viability,[10]; 30 nM,110%
same,normalised viability,[10]; 100 nM,114%
same,normalised viability,[11]; 10 nM,91%
same,normalised viability,[11]; 1000 nM,89.1%
same,normalised viability,[11]; 10000 nM,86.8%
same,drug sensitivity score,[12],0
same,drug sensitivity score,[13],0
same,drug sensitivity score,[14],0
same,drug sensitivity score,[15],0
same,drug sensitivity score,[16],0.925
same,drug sensitivity score,[17],0
same,drug sensitivity score,[18],0
same,drug sensitivity score,[19],0
same,drug sensitivity score,[20],0
same,drug sensitivity score,[21],0
same,drug sensitivity score,[22],0
same,drug sensitivity score,[23],0
same,drug sensitivity score,[24],0
CO[C@H]1C[C@@H]2CC[C@@H](C)[C@@](O)(O2)C(=O)C(=O)N2CCCC[C@H]2C(=O)O[C@H]([C@H](C)C[C@@H]2CC[C@@H](O)[C@H](OC)C2)CC(=O)[C@H](C)/C=C(\C)[C@@H](O)[C@@H](OC)C(=O)[C@H](C)C[C@H](C)/C=C/C=C/C=C/1C [Sirolimus],normalised viability,[1]; 0.3 nM,96.1%
same,normalised viability,[1]; 3 nM,53.9%
same,normalised viability,[1]; 10 nM,53.3%
same,normalised viability,[2]; 1 nM,55.6%
same,normalised viability,[2]; 100 nM,57.5%
same,normalised viability,[2]; 1000 nM,45.2%
same,normalised viability,[3]; 0.3 nM,80%
same,normalised viability,[3]; 3 nM,45.8%
same,normalised viability,[3]; 10 nM,34.5%
same,normalised viability,[4]; 1 nM,56.2%
same,normalised viability,[4]; 100 nM,47.5%
same,normalised viability,[4]; 1000 nM,47.1%
same,normalised viability,[5]; 1 nM,58%
same,normalised viability,[5]; 100 nM,46.3%
same,normalised viability,[5]; 1000 nM,59%
same,normalised viability,[6]; 1 nM,65.5%
same,normalised viability,[6]; 100 nM,53.1%
same,normalised viability,[6]; 1000 nM,51.8%
same,normalised viability,[7]; 0.3 nM,86.1%
same,normalised viability,[7]; 3 nM,34.2%
same,normalised viability,[7]; 10 nM,32.2%
same,normalised viability,[8]; 0.3 nM,99.1%
same,normalised viability,[8]; 3 nM,61.4%
same,normalised viability,[8]; 10 nM,65.8%
same,normalised viability,[9]; 1 nM,74%
same,normalised viability,[9]; 100 nM,62.8%
same,normalised viability,[9]; 1000 nM,87%
same,normalised viability,[10]; 0.3 nM,88.9%
same,normalised viability,[10]; 3 nM,66.3%
same,normalised viability,[10]; 10 nM,71.3%
same,normalised viability,[11]; 1 nM,90.3%
same,normalised viability,[11]; 100 nM,71.6%
same,normalised viability,[11]; 1000 nM,71.4%
same,drug sensitivity score,[12],6.47
same,drug sensitivity score,[13],2.79
same,drug sensitivity score,[14],12.2
same,drug sensitivity score,[15],9.21
same,drug sensitivity score,[16],6
same,drug sensitivity score,[17],0
same,drug sensitivity score,[18],7.08
same,drug sensitivity score,[19],6.86
same,drug sensitivity score,[20],1.94
same,drug sensitivity score,[21],5.69
same,drug sensitivity score,[22],0
same,drug sensitivity score,[23],2.98
same,drug sensitivity score,[24],5.31
CN1CCN(c2nc(C3=C(c4c[nH]c5ccccc45)C(=O)NC3=O)c3ccccc3n2)CC1 [Sotrastaurin],normalised viability,[1]; 3 nM,115%
same,normalised viability,[1]; 30 nM,113%
same,normalised viability,[1]; 100 nM,119%
same,normalised viability,[2]; 10 nM,82.5%
same,normalised viability,[2]; 1000 nM,92.8%
same,normalised viability,[2]; 10000 nM,74.2%
same,normalised viability,[3]; 3 nM,94.4%
same,normalised viability,[3]; 30 nM,91%
same,normalised viability,[3]; 100 nM,90.9%
same,normalised viability,[4]; 10 nM,103%
same,normalised viability,[4]; 1000 nM,93.8%
same,normalised viability,[4]; 10000 nM,74%
same,normalised viability,[5]; 10 nM,54.1%
same,normalised viability,[5]; 1000 nM,81.4%
same,normalised viability,[5]; 10000 nM,95.1%
same,normalised viability,[6]; 10 nM,98.7%
same,normalised viability,[6]; 1000 nM,98.4%
same,normalised viability,[6]; 10000 nM,87.2%
same,normalised viability,[7]; 3 nM,102%
same,normalised viability,[7]; 30 nM,105%
same,normalised viability,[7]; 100 nM,87.7%
same,normalised viability,[8]; 3 nM,98.6%
same,normalised viability,[8]; 30 nM,94%
same,normalised viability,[8]; 100 nM,115%
same,normalised viability,[9]; 10 nM,94.5%
same,normalised viability,[9]; 1000 nM,101%
same,normalised viability,[9]; 10000 nM,124%
same,normalised viability,[10]; 3 nM,88.9%
same,normalised viability,[10]; 30 nM,98.8%
same,normalised viability,[10]; 100 nM,94.1%
same,normalised viability,[11]; 10 nM,135%
same,normalised viability,[11]; 1000 nM,119%
same,normalised viability,[11]; 10000 nM,120%
same,drug sensitivity score,[12],0
same,drug sensitivity score,[13],0
same,drug sensitivity score,[14],0
same,drug sensitivity score,[15],0
same,drug sensitivity score,[16],0
same,drug sensitivity score,[17],0
same,drug sensitivity score,[18],0
same,drug sensitivity score,[19],0
same,drug sensitivity score,[20],1.72
same,drug sensitivity score,[21],1.56
same,drug sensitivity score,[22],0
same,drug sensitivity score,[23],0.186
same,drug sensitivity score,[24],0
